Test results: ChEMBL document CHEMBL5230091, “Histone deacetylase inhibitor based prodrugs” (Eur J Med Chem, 2020)
Values after ≈ are worked out from the molar mass of the structure shown.

Columns and labels:
HCT-116 [1] = assay: Antitumor activity against human HCT-116 cells xenografted in athymic nude mouse assessed as tumor volume inhibition at 60 mg/kg per day, po; format: functional
NCI-H1975 = assay: Antitumor activity against human NCI-H1975 cells xenografted in athymic nude mouse assessed as tumor volume inhibition at 60 mg/kg per day, po; format: functional
SK-OV-3 = assay: Antitumor activity against human SK-OV-3 cells xenografted in athymic nude mouse assessed as tumor volume inhibition at 60 mg/kg per day, po; format: functional
MDA-MB-436 = assay: Antitumor activity against human MDA-MB-436 cells xenografted in athymic nude mouse assessed as tumor volume inhibition at 60 mg/kg per day, po; format: functional
MV4-11 = assay: Antitumor activity against human MV4-11 cells xenografted in athymic nude mouse assessed as tumor volume inhibition at 60 mg/kg per day, po; format: functional
[2] = Cytotoxicity against human Astrocyte cells assessed as cell growth inhibition; format: toxicity, cell-based
U-251 = assay: Antiproliferative activity against human U-251MG cells assessed as cell growth inhibition; format: functional, cell-based
SF-188 = assay: Antiproliferative activity against human SF-188 cells assessed as cell growth inhibition; format: functional, cell-based
[3] = Aqueous solubility of compound by HPLC method; format: physicochemical; details: water (aqueous)
A549 = assay: Antiproliferative activity against human A549 cells assessed as cell growth inhibition measured after 72 hrs by SRB assay; format: functional, cell-based; details: A549, 72 h
HCT-116 [4] = assay: Antiproliferative activity against human HCT-116 cells assessed as cell growth inhibition measured after 72 hrs by SRB assay; format: functional, cell-based; details: HCT-116, 72 h

Compound `CC(=O)SCCCCC[C@H](NC(=O)[C@H]1CCC(=O)N1)C(=O)Nc1ccccc1` has an inhibition in vivo at 60 mg/kg (HCT-116 [1]) of 77%, an inhibition in vivo at 60 mg/kg (NCI-H1975) of 65% and an inhibition in vivo at 60 mg/kg (SK-OV-3) of 59%. The inhibition in vivo at 60 mg/kg (MDA-MB-436) was 35% and the inhibition in vivo at 60 mg/kg (MV4-11) was 70%.

Work on `CCCC(=O)OCOC(=O)CCCc1ccccc1` yielded an IC50 [2] of 291000 nM, an IC50 (U-251) of 154000 nM and an IC50 (SF-188) of 76000 nM.

Compound `CN(CCOC(=O)ONC(=O)/C=C/c1cccc(S(=O)(=O)Nc2ccccc2)c1)C(=O)OCc1ccc(O[C@@H]2O[C@H](C(=O)O)[C@@H](O)[C@H](O)[C@H]2O)c([N+](=O)[O-])c1` has a solubility [3] of 80 mg/mL (≈ 101 mM).

Compound `CN(CCOC(=O)ONC(=O)CCCCCCC(=O)Nc1ccccc1)C(=O)OCc1ccc(O[C@@H]2O[C@H](C(=O)O)[C@@H](O)[C@H](O)[C@H]2O)c([N+](=O)[O-])c1` has a solubility [3] of 40 mg/mL (≈ 54.3 mM).

With `CN(CCOC(=O)ONC(=O)/C=C/c1cccc(S(=O)(=O)Nc2ccccc2)c1)C(=O)OCc1ccc(O[C@@H]2O[C@H](C(=O)O)[C@@H](O)[C@H](O)[C@H]2O)c(N)c1` the solubility [3] was 100 mg/mL (≈ 131 mM).

`CCc1c2c(nc3ccc(O)cc13)-c1cc3c(c(=O)n1C2)COC(=O)[C@@]3(CC)OC(=O)CNC(=O)ONC(=O)CCCCCCC(=O)Nc1ccccc1` showed an IC50 (A549) of 87.3 nM and an IC50 (HCT-116 [4]) of 113 nM.

Compound `CN(CCOC(=O)ONC(=O)CCCCCCC(=O)Nc1ccccc1)C(=O)OCc1ccc(O[C@@H]2O[C@H](C(=O)O)[C@@H](O)[C@H](O)[C@H]2O)c(N)c1` has a solubility [3] of 55 mg/mL (≈ 77.8 mM).

`CCc1c2c(nc3ccc(O)cc13)-c1cc3c(c(=O)n1C2)COC(=O)[C@]3(O)CC` [7-ETHYL-10-HYDROXYCAMPTOTHECIN] gave an IC50 (A549) of 45.4 nM and an IC50 (HCT-116 [4]) of 55.1 nM.
